Experimental data taken from patent US5278143A, “Prophylactic and therapeutic methods for treating interleukin-mediated edemas” (Trustees of Boston University, priority 1991, dated 1994).
Residues, ends and D or L forms follow the SMILES beside them.

Assays:
IL-2 induced edema [1] = assay: IL-2 induced vascular leak syndrome, organ wet to dry (W/D) weight ratios; type: in vivo, rats; conditions: for Lung wet to dry weight ratio, effect of agent on IL-2 edema: agent 1 uM co-treatment with 10^6 U/ml IL-2, p<0.05, FIG. 5; for Heart wet to dry weight ratio, effect of agent on IL-2 edema: agent 1 uM co-treatment with 10^6 U/mml IL-2, p<0.01, FIG. 4; for Kidney wet to dry ratio, effect of agent on IL-2 edema: agent 1 uM plus 10^6 U/ml IL-2, FIG. 2; for Liver wet to dry ratio, effect of agent with IL-2: agent 1 uM plus IL-2 co-treatment, FIG. 3; for Spleen wet to dry ratio, effect of agent with IL-2: agent plus 10^6 U/ml IL-2, FIG. 1
Description: (§1) 1. Assay Models: Vascular leak syndrome is induced rapidly in adult, male rats (500 g) by a continuous infusion for 1 h of 10^6 units of IL-2 (n=36). Five hours later the animals are killed and edema is quantitated by measuring wet to dry (W/D) ratios for the lungs, kidneys, liver, heart, and spleen.
(§2) 2. Controls: Animals are pretreated with 0.5 ml saline for 30 min. prior to the IL-2 infusion (n=28).
(§3) 3. Experimental Animals: Each animal is pretreated with either Phallin A (antamanide) or Phallin B (phalloidin), 20 ug/0.5 ml saline as a single bolus 30 min. prior to the infusion of IL-2 (n=24). Each animal then receives at 30 min. intervals a booster injection of 20 ug of Phallin A or Phallin B for the duration (6 h) of the experiments.

IL-2 induced edema [2] = assay: IL-2 induced vascular leak syndrome, protein concentration of bronchoalveolar lavage fluid; type: in vivo, rats; conditions: agent 1 uM and 10^6 U/ml Interleukin-2, compared with 10^6 U/ml Interleukin-2 alone, FIG. 6
Description: as §1, §2, §3
4. Protein Analysis: Samples obtained by bronchoalveolar lavage are quantitated for protein concentration as another means of determining the relative loss of barrier integrity in the experimental animals compared to controls.

IL-2 induced edema [3] = assay: IL-2 induced vascular leak syndrome, organ wet to dry (W/D) weight ratios; type: in vivo, rats; conditions: for Spleen wet to dry ratio (splenic edema) / Kidney wet to dry ratio (renal edema) / Liver wet to dry ratio (hepatic edema) / Heart wet to dry weight ratio (cardiac edema) / Lung wet to dry weight ratio (pulmonary edema): agent alone, 1 uM; for Spleen wet to dry ratio (splenic edema): FIG. 1; for Kidney wet to dry ratio (renal edema): FIG. 2; for Liver wet to dry ratio (hepatic edema): FIG. 3; for Heart wet to dry weight ratio (cardiac edema): FIG. 4; for Lung wet to dry weight ratio (pulmonary edema): FIG. 5
phalloidin poisoning = conditions: cited from earlier work
albino mice = conditions: intramuscularly; cited from earlier work
mice or rats = conditions: high dose levels, intramuscularly; cited from earlier work

Row | Molecule | Lung wet to dry weight ratio, effect of agent on IL-2 edema (IL-2 induced edema [1]) | Heart wet to dry weight ratio, effect of agent on IL-2 edema (IL-2 induced edema [1]) | Kidney wet to dry ratio, effect of agent on IL-2 edema (IL-2 induced edema [1]) | Liver wet to dry ratio, effect of agent with IL-2 (IL-2 induced edema [1]) | Spleen wet to dry ratio, effect of agent with IL-2 (IL-2 induced edema [1]) | Protein concentration in bronchoalveolar lavage fluid (IL-2 induced edema [2]) | Spleen wet to dry ratio (splenic edema) (IL-2 induced edema [3]) | Kidney wet to dry ratio (renal edema) (IL-2 induced edema [3]) | Liver wet to dry ratio (hepatic edema) (IL-2 induced edema [3]) | Heart wet to dry weight ratio (cardiac edema) (IL-2 induced edema [3]) | Lung wet to dry weight ratio (pulmonary edema) (IL-2 induced edema [3]) | also measured
1 | CC(C)[C@@H]1NC(=O)[C@H](Cc2ccccc2)NC(=O)[C@H](Cc2ccccc2)NC(=O)[C@@H]2CCCN2C(=O)[C@@H]2CCCN2C(=O)[C@H](Cc2ccccc2)NC(=O)[C@H](Cc2ccccc2)NC(=O)[C@H](C)NC(=O)[C@@H]2CCCN2C(=O)[C@@H]2CCCN2C1=O [antamanide] (cyclo(AFFPPFFVPP)) | significantly reduced | significantly reduced | signnificantly improved (p<0.05) | No significant change in wet/dry weight ratio | remained unmodified | drastically reduced the accumulation and concentration of protein | did not produce any significant splenic edema | did not produce any significant renal edema | did not produce any significant hepatic edema | did not produce any significant cardiac edema | did not produce any significant pulmonary edema | Lung wet to dry weight ratio, effect of agent on IL-2 edema (IL-2 induced edema [1]; listed as Phallin A): prevented IL-2 induced edema; Heart wet to dry weight ratio, effect of agent on IL-2 edema (IL-2 induced edema [1]; listed as Phallin A): prevented IL-2 induced edema; Kidney wet to dry ratio, effect of agent on IL-2 edema (IL-2 induced edema [1]; listed as Phallin A): prevented IL-2 induced edema; Liver wet to dry ratio, effect of agent with IL-2 (IL-2 induced edema [1]; listed as Phallin A): appear unaffected; Spleen wet to dry ratio, effect of agent with IL-2 (IL-2 induced edema [3]; agent plus 10^6 U/ml IL-2, FIG. 1, listed as Phallin A): appear unaffected; toxicity of the substance itself (phalloidin poisoning; in vivo): completely non-toxic of itself; effect on toxic effects of fatal doses of phalloidin (phalloidin poisoning; therapeutic doses): capable of actually annulling the toxic effects of fatal doses of phalloidin
2 | Phalloidin | significantly reduced | significantly reduced | significantly (p<0.05) worsened | produced significant (p<0.05) edema | remained unmodified | drastically reduced the accumulation and concentration of protein | did not produce any significant splenic edema | did not produce any significant renal edema | did not produce any significant hepatic edema | did not produce any significant cardiac edema | did not produce any significant pulmonary edema | Lung wet to dry weight ratio, effect of agent on IL-2 edema (IL-2 induced edema [1]; listed as Phallin B): decreases IL-2 induced edema; Heart wet to dry weight ratio, effect of agent on IL-2 edema (IL-2 induced edema [1]; listed as Phallin B): decreases IL-2 induced edema; Kidney wet to dry ratio, effect of agent on IL-2 edema (IL-2 induced edema [1]; listed as Phallin B): apparently produces edema; Liver wet to dry ratio, effect of agent with IL-2 (IL-2 induced edema [1]; listed as Phallin B): apparently produces edema; LD50 dose (albino mice): 3.3 micrograms per gram of body weight; time to death (mice or rats): death of mice or rats within one or two hours
